Structures are written as SMILES.

The values below come from ChEMBL document CHEMBL2074550, “Carbamazepine is not a substrate for P-glycoprotein” (Br J Clin Pharmacol, 2001).

Series [1] has as its target P-glycoprotein 1 and 3 (MDR1a/MDR1b) (Mus musculus, UniProt P21447+P06795). As to the kind of experiment: TP_TRANSPORTER: no change in brain concentration in mdr1a/1b(-/-) mouse. Conditions: in vivo. It is filed as functional, organism-based.
Series [2] concerns the target T1, ATP-dependent translocase ABCB1 (Homo sapiens, UniProt P08183). As to the kind of experiment: TP_TRANSPORTER: inhibition of Rhodamine 123 efflux (R123: 1.5 ug/mL, Carbamazepine: 100 uM) in human lymphocytes. The series is classed as functional, cell-based. Conditions: lymphocyte.
For series [3], the target named is T1, ATP-dependent translocase ABCB1. As to the kind of experiment: TP_TRANSPORTER: transepithelial transport (basal to apical) in Caco-2 cells. The series is classed as functional, cell-based. (In general: Caco-2 monolayers are a common model of the intestinal barrier.)

T1 sequence (P08183 whole entry): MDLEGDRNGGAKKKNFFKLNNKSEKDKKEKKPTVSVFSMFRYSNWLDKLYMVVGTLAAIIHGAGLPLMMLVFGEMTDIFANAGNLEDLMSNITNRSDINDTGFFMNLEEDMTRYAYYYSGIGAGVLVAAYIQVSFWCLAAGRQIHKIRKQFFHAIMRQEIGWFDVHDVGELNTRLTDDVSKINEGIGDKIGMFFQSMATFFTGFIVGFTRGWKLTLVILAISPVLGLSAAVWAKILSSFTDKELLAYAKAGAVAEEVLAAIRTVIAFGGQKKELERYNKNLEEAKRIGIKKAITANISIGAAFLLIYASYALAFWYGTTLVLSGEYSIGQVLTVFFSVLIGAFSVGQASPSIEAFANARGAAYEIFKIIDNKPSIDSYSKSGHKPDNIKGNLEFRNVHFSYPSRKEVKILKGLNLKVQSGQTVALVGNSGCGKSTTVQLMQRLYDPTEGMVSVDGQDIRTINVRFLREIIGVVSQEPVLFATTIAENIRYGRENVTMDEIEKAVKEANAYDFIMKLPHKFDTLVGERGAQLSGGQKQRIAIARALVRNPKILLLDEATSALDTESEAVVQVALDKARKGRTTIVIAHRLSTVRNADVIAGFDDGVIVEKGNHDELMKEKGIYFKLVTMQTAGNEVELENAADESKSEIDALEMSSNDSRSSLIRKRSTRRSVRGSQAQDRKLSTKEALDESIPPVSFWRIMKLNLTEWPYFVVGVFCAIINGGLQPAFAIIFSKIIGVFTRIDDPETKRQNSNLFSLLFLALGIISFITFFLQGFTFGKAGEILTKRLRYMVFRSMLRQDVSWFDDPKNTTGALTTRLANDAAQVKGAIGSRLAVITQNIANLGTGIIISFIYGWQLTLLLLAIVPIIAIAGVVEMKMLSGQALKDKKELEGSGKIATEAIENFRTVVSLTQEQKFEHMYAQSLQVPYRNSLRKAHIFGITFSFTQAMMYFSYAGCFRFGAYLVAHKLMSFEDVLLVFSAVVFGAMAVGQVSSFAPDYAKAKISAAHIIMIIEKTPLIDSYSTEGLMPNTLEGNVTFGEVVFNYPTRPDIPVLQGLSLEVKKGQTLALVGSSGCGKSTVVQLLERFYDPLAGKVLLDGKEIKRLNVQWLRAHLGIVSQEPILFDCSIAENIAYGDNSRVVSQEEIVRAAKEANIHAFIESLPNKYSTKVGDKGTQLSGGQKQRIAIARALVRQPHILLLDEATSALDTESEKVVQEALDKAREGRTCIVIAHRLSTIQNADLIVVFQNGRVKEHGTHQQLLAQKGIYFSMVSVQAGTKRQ

For the molecule `NC(=O)N1c2ccccc2C=Cc2ccccc21` [CARBAMAZEPINE], the Activity result is “is not a substrate [-]” in series [1], “is not an inhibitor [-]” in series [2] and “is not a substrate [-]” in series [3].
